According to ChEMBL document CHEMBL1147434, “Synthesis and biological results of the technetium-99m-labeled 4-nitroimidazole for imaging tumor hypoxia” (Bioorg Med Chem Lett, 2004):

Columns and labels:
Type in all cases: ADME, organism-based
[1] = test system: Mus musculus; assay: In vivo biodistribution of radiolabeled [99mTc]-N4IPA in mice spleen bearing S180 tumor cell line for 4 hours; settings: ccrf s-180, 4 h
[2] = test system: Mus musculus; assay: In vivo biodistribution of radiolabeled [99mTc]-N4IPA in mice tumor/liver bearing S180 tumor cell line for 1 hour; settings: ccrf s-180, 1 h
[3] = test system: Mus musculus; assay: In vivo biodistribution of radiolabeled [99mTc]-N4IPA in mice heart bearing S180 tumor cell line for 1 hour; settings: ccrf s-180, 1 h
[4] = test system: Mus musculus; assay: In vivo biodistribution of radiolabeled [99mTc]N4IPA in mice tumor/muscle bearing S180 tumor cell line for 1 hour; settings: ccrf s-180, 1 h
[5] = test system: Mus musculus; assay: In vivo biodistribution of radiolabeled [99mTc]-N4IPA in mice tumor/muscle bearing S180 tumor cell line for 4 hours; settings: ccrf s-180, 4 h
[6] = test system: Mus musculus; assay: In vivo biodistribution of radiolabeled [99mTc]-N4IPA in mice tumor/lung bearing S180 tumor cell line for 8 hours; settings: ccrf s-180, 8 h
[7] = test system: Mus musculus; assay: In vivo biodistribution of radiolabeled [99mTc]N4IPA in mice muscle bearing S180 tumor cell line for 2 hours; settings: ccrf s-180, 2 h
[8] = test system: Mus musculus; assay: In vivo biodistribution of radiolabeled [99mTc]-N4IPA in mice tumor/lung bearing S180 tumor cell line for 4 hours; settings: ccrf s-180, 4 h
[9] = test system: Mus musculus; assay: In vivo biodistribution of radiolabeled [99mTc]-N4IPA in mice brain bearing S180 tumor cell line for 1 hour; settings: ccrf s-180, 1 h
[10] = test system: Mus musculus; assay: In vivo biodistribution of radiolabeled [99mTc]-N4IPA in mice tumor/heart bearing S180 tumor cell line for 8 hours; settings: ccrf s-180, 8 h
[11] = test system: Mus musculus; assay: In vivo biodistribution of radiolabeled [99mTc]N4IPA in mice heart bearing S180 tumor cell line for 8 hours; settings: ccrf s-180, 8 h
[12] = test system: Mus musculus; assay: In vivo biodistribution of radiolabeled [99mTc]N4IPA in mice lung bearing S180 tumor cell line for 30 minutes; settings: ccrf s-180, 0.5 h
[13] = test system: Mus musculus; assay: In vivo biodistribution of radiolabeled [99mTc]-N4IPA in mice spleen bearing S180 tumor cell line for 30 minutes; settings: ccrf s-180, 0.5 h
[14] = test system: Mus musculus; assay: In vivo biodistribution of radiolabeled [99mTc]N4IPA in mice heart bearing S180 tumor cell line for 4 hours; settings: ccrf s-180, 4 h
[15] = test system: Mus musculus; assay: In vivo biodistribution of radiolabeled [99mTc]-N4IPA in mice tumor/lung bearing S180 tumor cell line for 30 minutes; settings: ccrf s-180, 0.5 h
[16] = test system: Mus musculus; assay: In vivo biodistribution of radiolabeled [99mTc]N4IPA in mice brain bearing S180 tumor cell line for 30 minutes; settings: ccrf s-180, 0.5 h
[17] = test system: Mus musculus; assay: In vivo biodistribution of radiolabeled [99mTc]-N4IPA in mice liver bearing S180 tumor cell line for 4 hours; settings: ccrf s-180, 4 h
[18] = test system: Mus musculus; assay: In vivo biodistribution of radiolabeled [99mTc]N4IPA in mice heart bearing S180 tumor cell line for 2 hours; settings: ccrf s-180, 2 h
[19] = test system: Mus musculus; assay: In vivo biodistribution of radiolabeled [99mTc]-N4IPA in mice spleen bearing S180 tumor cell line for 8 hours; settings: ccrf s-180, 8 h
[20] = test system: Mus musculus; assay: In vivo biodistribution of radiolabeled [99mTc]-N4IPA in mice kidney bearing S180 tumor cell line for 4 hours; settings: ccrf s-180, 4 h
[21] = test system: Mus musculus; assay: In vivo biodistribution of radiolabeled [99mTc]N4IPA in mice tumor/blood bearing S180 tumor cell line for 1 hour; settings: ccrf s-180, 1 h
[22] = test system: Mus musculus; assay: In vivo biodistribution of radiolabeled [99mTc]-N4IPA in mice tumor bearing S180 tumor cell line for 30 minutes; settings: ccrf s-180, 0.5 h
[23] = test system: Mus musculus; assay: In vivo biodistribution of radiolabeled [99mTc]-N4IPA in mice spleen bearing S180 tumor cell line for 2 hours; settings: ccrf s-180, 2 h
[24] = test system: Mus musculus; assay: In vivo biodistribution of radiolabeled [99mTc]N4IPA in mice spleen bearing S180 tumor cell line for 1 hour; settings: ccrf s-180, 1 h
[25] = test system: Mus musculus; assay: In vivo biodistribution of radiolabeled [99mTc]N4IPA in mice tumor bearing S180 tumor cell line for 8 hours; settings: ccrf s-180, 8 h
[26] = test system: Mus musculus; assay: In vivo biodistribution of radiolabeled [99mTc]-N4IPA in mice tumor/liver bearing S180 tumor cell line for 8 hours; settings: ccrf s-180, 8 h
[27] = test system: Mus musculus; assay: In vivo biodistribution of radiolabeled [99mTc]-N4IPA in mice lung bearing S180 tumor cell line for 1 hour; settings: ccrf s-180, 1 h
[28] = test system: Mus musculus; assay: In vivo biodistribution of radiolabeled [99mTc]N4IPA in mice tumor/lung bearing S180 tumor cell line for 2 hours; settings: ccrf s-180, 2 h
[29] = test system: Mus musculus; assay: In vivo biodistribution of radiolabeled [99mTc]-N4IPA in mice tumor/heart bearing S180 tumor cell line for 30 minutes; settings: ccrf s-180, 0.5 h
[30] = test system: Mus musculus; assay: In vivo biodistribution of radiolabeled [99mTc]-N4IPA in mice heart bearing S180 tumor cell line for 30 minutes; settings: ccrf s-180, 0.5 h
[31] = test system: Mus musculus; assay: In vivo biodistribution of radiolabeled [99mTc]-N4IPA in mice blood bearing S180 tumor cell line for 2 hours; settings: ccrf s-180, 2 h
[32] = test system: Mus musculus; assay: In vivo biodistribution of radiolabeled [99mTc]-N4IPA in mice muscle bearing S180 tumor cell line for 30 minutes; settings: ccrf s-180, 0.5 h
[33] = test system: Mus musculus; assay: In vivo biodistribution of radiolabeled [99mTc]-N4IPA in mice muscle bearing S180 tumor cell line for 8 hours; settings: ccrf s-180, 8 h
[34] = test system: Mus musculus; assay: In vivo biodistribution of radiolabeled [99mTc]N4IPA in mice tumor/blood bearing S180 tumor cell line for 30 minutes; settings: ccrf s-180, 0.5 h
[35] = test system: Mus musculus; assay: In vivo biodistribution of radiolabeled [99mTc]N4IPA in mice tumor/heart bearing S180 tumor cell line for 2 hours; settings: ccrf s-180, 2 h

## N/C(CCn1cnc([N+](=O)[O-])c1)=N\O
[1]
  Biodistribution: 0.08 % g-1
[2]
  Biodistribution: 0.57 % g-1
[3]
  Biodistribution: 0.14 % g-1
[4]
  Biodistribution: 4.25 % g-1
[5]
  Biodistribution: 8.6 % g-1
[6]
  Biodistribution: 3.09 % g-1
[7]
  Biodistribution: 0.05 % g-1
[8]
  Biodistribution: 2.94 % g-1
[9]
  Biodistribution: 0.04 % g-1
[10]
  Biodistribution: 5.39 % g-1
[11]
  Biodistribution: 0.06 % g-1
[12]
  Biodistribution: 0.39 % g-1
[13]
  Biodistribution: 0.13 % g-1
[14]
  Biodistribution: 0.08 % g-1
[15]
  Biodistribution: 1.42 % g-1
[16]
  Biodistribution: 0.04 % g-1
[17]
  Biodistribution: 0.39 % g-1
[18]
  Biodistribution: 0.12 % g-1
[19]
  Biodistribution: 0.06 % g-1
[20]
  Biodistribution: 3.14 % g-1
[21]
  Biodistribution: 1.19 % g-1
[22]
  Biodistribution: 0.55 % g-1
[23]
  Biodistribution: 0.09 % g-1
[24]
  Biodistribution: 0.1 % g-1
[25]
  Biodistribution: 0.32 % g-1
[26]
  Biodistribution: 1.41 % g-1
[27]
  Biodistribution: 0.22 % g-1
[28]
  Biodistribution: 2.24 % g-1
[29]
  Biodistribution: 2.31 % g-1
[30]
  Biodistribution: 0.24 % g-1
[31]
  Biodistribution: 0.22 % g-1
[32]
  Biodistribution: 0.15 % g-1
[33]
  Biodistribution: 0.04 % g-1
[34]
  Biodistribution: 0.78 % g-1
[35]
  Biodistribution: 3.39 % g-1
